Where two headings read alike, the source gives them in different places. Values belong to the compound of their own block, whether it stands above or below them.
What was measured:
[1] = system: CNS D-2 dopamine receptor; conditions: cited from earlier work
dopamine D-2 receptor [2] = biological target: T1, dopamine D-2 receptor (Rattus norvegicus, UniProt P61169); test: Competition binding using [^125 I]IBF, rat striatal membranes; conditions: [^125 I]IBF 0.15-0.30 nM, mean ± SEM of three to five determinations
T1 construct: Striatal tissues were excised, pooled and homogenized in 100 volumes (w/v) of ice-cold Tris-HCl buffer; from tissue; host or cells: rat striatum (male Sprague-Dawley), twice-centrifuged membrane homogenate
Experimental: *0.15-0.30 nM [^125 I]IBF was incubated in the presence of the
(§1) indicated compounds in 7-11 concentrations and of membrane preparation
(§2) from rat striatum. Each value represents the mean ± SEM of three to
(§3) Male Sprague-Dawley rats (200-250 g) were decapitated, and the brains were removed and placed in ice. Striatal tissues were excised, pooled and homogenized in 100 volumes (w/v) of ice-cold Tris-HCl buffer (50 mM), pH 7.4. The homogenates were centrifuged at 20,000× g for 20 min. The resultant pellets were rehomogenized in the same buffer and centrifuged again. The final pellets were resuspended in assay buffer containing: 50 mM Tris buffer pH 7.4, 120 mM NaCl, 5 mM KCl, 2 mM CaCl2 and 1 mM MgCl2 and kept at -20° C. for the following binding assay.
(§4) The binding assays were performed by incubating 50 μl of tissue preparations containing 40-60 μg of protein with appropriate amounts of l-125 labeled ligand and competitors in a total volume of 0.2 ml of the assay buffer. After an incubation period of 15 min at 37° C. (with stirring), the samples were rapidly filtered in the cell harvester (Brandel M-24R) under vacuum through Whatman GF/B glass fiber filters pretreated with 0.2% protamine base and washed with 3×5 ml of cold (4° C.) 50 mM Tris-HCl buffer, pH 7.4. […] The filters were counted in a gamma counter (Beckman 5500) at an efficiency of 70%.

D-2 dopamine receptor [3] = conditions: cited from earlier work; for nonspecific binding: in vitro
D-2 dopamine receptor [4] = conditions: cited from earlier work; for Kd: Table 1, in vitro binding; for affinity for D-2 dopamine receptor / nonspecific binding: rat striatum tissue preparations; for affinity and selectivity to the D-2 dopamine receptor: striatal membrane preparation
D-2 dopamine receptors = biological target: T2, D-2 dopamine receptors (Rattus norvegicus, UniProt P61169); test: Competition binding using [^125 I]IBZM, rat striatal membranes
T2 construct: Striatal tissues were excised, pooled and homogenized in 100 volumes (w/v) of ice-cold Tris-HCl buffer; from tissue; host or cells: rat striatum (male Sprague-Dawley), twice-centrifuged membrane homogenate
Experimental: *0.15-0.4 nM [^125 I]IBZM was incubated in the presence of the
as §1, §2, §3, §4

dopamine D-2 receptor [5] = biological target: T1, dopamine D-2 receptor; test: Saturation binding of [^125 I]IBF to rat striatal homogenate in vitro; conditions: saturation curve, FIG. 1
Experimental: as §3, §4

D-2 dopamine receptor [6] = conditions: read-out: IC50 against [H^3]spiperone binding of rat striatal tissue preparation; Table 1 footnote; cited from earlier work
D-2 dopamine receptor [7] = conditions: cited from earlier work
[8] = Biodistribution in rats after IV injection; assay type: in vivo, rat; conditions: IV, average of 3 rats ± SD
Experimental: Male Sprague Dawley rats (225-300 g), which were allowed free access to food and water, were used for in vivo biodistribution study. While under halothane anesthesia, 0.2 ml of a saline solution containing [^125 l]IBF, 21, (8-10 μCi) was injected directly into the femoral vein, and the rats were sacrificed at various time points postinjection by cardiac excision under halothane anesthesia. The organs of interest were removed, weighed and the radioactivity was counted using a Beckman gamma automatic counter (Model 4000). The percent dose per organ was calculated by a comparison of the tissue counts to suitably diluted aliquots of the injected material. Total activities of blood and muscle were calculated assuming that they are 7% and 40% of total body weight, respectively.

[9] = [^125 I]IBZM 0.15-0.4 nM, mean ± SEM of three to five determinations
[10] = N-methylspiperone imaging agent, determined earlier

T2 sequence (P61169 whole entry): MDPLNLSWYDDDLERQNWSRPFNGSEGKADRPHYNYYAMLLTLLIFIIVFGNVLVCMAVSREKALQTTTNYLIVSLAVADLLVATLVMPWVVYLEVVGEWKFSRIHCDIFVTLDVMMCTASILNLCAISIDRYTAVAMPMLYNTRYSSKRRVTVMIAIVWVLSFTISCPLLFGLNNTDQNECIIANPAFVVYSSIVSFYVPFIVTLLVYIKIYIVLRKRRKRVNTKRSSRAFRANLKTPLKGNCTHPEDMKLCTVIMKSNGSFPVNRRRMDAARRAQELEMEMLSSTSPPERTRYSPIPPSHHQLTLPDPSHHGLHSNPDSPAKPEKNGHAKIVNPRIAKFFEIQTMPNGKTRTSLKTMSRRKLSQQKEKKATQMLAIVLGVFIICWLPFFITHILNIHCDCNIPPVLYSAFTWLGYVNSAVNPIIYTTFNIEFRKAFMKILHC
T1 sequence (P61169 whole entry): as above

Compound: CCN1CCC[C@H]1CNC(=O)c1c(O)c(Cl)cc(Cl)c1O[11CH3] (racemic) [[^11 C]raclopride]
affinity constant Kd ([1]; living human brain, PET, equilibrium model and Scatchard plots): 7.1 nM
Bmax ([1]; living human brain, PET): 15 pmol/mL
ratio of specific striatal to nonspecific cerebellar binding ([1]; living human brain, PET): high ratio

Compound: NC1CCc2cc(O)c(O)cc2C1 (single isomer, unassigned; (+)) [(+) ADTN,6,7]
Ki (dopamine D-2 receptor [2]): 65.7 ± 13 nM

Compound: O=C(CCCN1CCC2(CC1)C(=O)NCN2c1ccccc1)c1ccc(F)cc1I [2'-ISP]
D-2 specificity (D-2 dopamine receptor [3]): excellent D-2 specificity
nonspecific binding (D-2 dopamine receptor [3]): 40%
Kd (D-2 dopamine receptor [3]; rat striatum): 0.25 nM

Compound: CCN1CCC[C@H]1CNC(=O)c1c(O)cccc1OC [BZM]
Kd (D-2 dopamine receptor [4]): 31.1 nM

Ki (D-2 dopamine receptors; [9]): 280 ± 47 nM
Compound: CCN1CCC[C@H]1CNC(=O)c1cc2cc(Br)ccc2cc1O [Comparative Cpd. A, reference compound]

Ki (D-2 dopamine receptors; [9]): 507 ± 29 nM
Compound: CCN1CCC[C@H]1CNC(=O)c1c(OC)ccc2ccccc12 [Comparative Cpd. B, 2-Methoxy-N-[(1-ethyl-2-pyrrolidinyl)methyl]naphthyl-1-carboxamide, reference compound]

Ki (D-2 dopamine receptors; [9]): 82 ± 12 nM
Ki (D-2 dopamine receptors; [^125 I]IBZM binding): 82 nM
Compound: CCN1CCC[C@H]1CNC(=O)c1cc2cc(Br)ccc2cc1OC [Compound 6, S-(-)-7-Bromo-3-methoxy-N[(1-ethyl-2-pyrrolidinyl)methyl]naphthyl-2-carboxamide]

Ki (D-2 dopamine receptors; [9]): 168 ± 13 nM
Ki (D-2 dopamine receptors; [^125 I]IBZM binding): 168 nM
Compound: CCN1CCC[C@H]1CNC(=O)c1cc2cc(I)ccc2cc1OC [Compound 8, (S)-(-)-7-Iodo-3-methoxy-N-[(1-ethyl-2-pyrrolidinyl)methyl]naphthyl-2-carboxamide]

Ki (D-2 dopamine receptors; [9]): 30 ± 4.2 nM
Ki (D-2 dopamine receptors; [^125 I]IBZM binding): 30 nM
Compound: CCN1CCC[C@H]1CNC(=O)c1cc2ccccc2cc1OC [Compound 11, (S)-(-)-3-Methoxy-N-[(1-ethyl-2-pyrrolidinyl)methyl]naphthyl-2-carboxamide]

nonspecific binding (dopamine D-2 receptor [5]): low nonspecific binding
Ki (D-2 dopamine receptors; [9]): 0.33 ± 0.02 nM
Ki (D-2 dopamine receptors; [^125 I]IBZM binding): 0.23 nM
times more effective than the bromine atom for increasing competitive binding affinity (D-2 dopamine receptors; iodo (21) vs bromo (19)): sixteen
Ki (dopamine D-2 receptor [2]): 0.085 ± 0.01 nM
Compound: CCN1CCC[C@H]1CNC(=O)c1cc(I)cc2c1OCC2 [Compound 21, 5-Iodo-7-N-[(1-ethyl-2-pyrrolidinyl)methyl]carboxamido-2,3-dihydrobenzofuran]

Ki (D-2 dopamine receptors; [9]): 135 ± 22 nM
Ki (D-2 dopamine receptors; [^125 I]IBZM binding): 135 nM
Compound: CCN1CCC[C@H]1CNC(=O)c1cccc2c1OCC2 [Compound 23, 7-N-[(1-ethyl-2-pyrrolidinyl)methyl]carboxamido-2,3-dihydrobenzofuran]

Compound: CCc1cc(Cl)c(OC)c(C(=O)NC[C@@H]2CCCN2CC)c1O [Eticlopride]
Kd (D-2 dopamine receptor [4]): 0.17 nM
affinity for D-2 dopamine receptor (D-2 dopamine receptor [4]): high affinity
nonspecific binding (D-2 dopamine receptor [4]): low nonspecific binding

Ki (dopamine D-2 receptor [2]): 0.261 ± 0.018 nM
Compound: CCN1CCC[C@H]1CNC(=O)c1c(OC)ccc(I)c1O [IBZM]
Kd (D-2 dopamine receptor [4]): 0.43 nM
affinity and selectivity to the D-2 dopamine receptor (D-2 dopamine receptor [4]): very high affinity and selectivity

Compound: COc1cc(N=[N+]=[N-])c(I)cc1C(=O)NC1CCN(Cc2ccccc2)CC1 [Iodoazidoclebopride]
Kd (D-2 dopamine receptor [4]): 14 nM
affinity and selectivity to the D-2 dopamine receptor (D-2 dopamine receptor [4]): very high affinity and selectivity

Compound: CCN1CCC[C@H]1CNC(=O)c1cc(I)ccc1OC [Iodopride]
affinity and selectivity to the D-2 dopamine receptor (D-2 dopamine receptor [4]): very high affinity and selectivity
IC50 (D-2 dopamine receptor [6]): 3 nM

Ki (dopamine D-2 receptor [2]): 491 ± 49 nM
Compound: O=C(c1ccc(F)cc1)C1CCN(CCn2c(=O)[nH]c3ccccc3c2=O)CC1 [Ketanserin]

Compound: CN1CN(c2ccccc2)C2(CCN(CCCC(=O)c3ccc(F)cc3)CC2)C1=O [N-methylspiperone]
Bmax [1, 10]: 16.6 pmol/g
Kd [1, 10]: 0.097 nM

Compound: CCN1CCC[C@H]1CNC(=O)c1c(O)c(Cl)cc(Cl)c1OC [Raclopride]
Kd (D-2 dopamine receptor [4]): 1.1 nM
affinity for D-2 dopamine receptor (D-2 dopamine receptor [4]): high affinity
nonspecific binding (D-2 dopamine receptor [4]): low nonspecific binding

Compound: CCN1CCC[C@H]1CNC(=O)c1c(OC)ccc([123I])c1O [S-[^123 I]IBZM]
basal ganglia uptake, planar imaging (D-2 dopamine receptor [7]; immediately after intravenous injection, humans): high concentration in basal ganglia of the brain
basal ganglia uptake, SPECT (D-2 dopamine receptor [7]; normal human brain, 1 hour postinjection): highly specific uptake in the basal ganglia of the brain

Brain uptake ([8]; 2 min): 2.87 % Dose/Organ
Thyroid uptake ([8]; 60 min): 0.1 % Dose/Organ
Compound: CCN1CCC[C@H]1CNC(=O)c1c(OC)ccc([125I])c1O [[^125 I]IBZM, reference compound]
nonspecific binding (D-2 dopamine receptor [3]): 5%

— patent publication US5334728A (The Trustees of The University of Pennsylvania, priority 1992, dated 1994)
